Literature values in US20170080049A1, “MEDICINE AGAINST GROWTH FAILURE INDUCED BY ADMINISTRATION OF STEROID” (DAIICHI SANKYO COMPANY, LIMITED, priority 2014, published 2017).
Positions of bridges follow the written chain, without caps; N, C: chain ends. No end group written: not given here.

Key:
normal mice = conditions: continuous intravenous administration, normal mice (Non Patent Literature 9, 10); cited from earlier work
NPR-B = target: T1, NPR-B (Homo sapiens, UniProt P20594); conditions: Furuya et al. 1992; US 2010-305031; cited from earlier work
T1 sequence (P20594 23-1047): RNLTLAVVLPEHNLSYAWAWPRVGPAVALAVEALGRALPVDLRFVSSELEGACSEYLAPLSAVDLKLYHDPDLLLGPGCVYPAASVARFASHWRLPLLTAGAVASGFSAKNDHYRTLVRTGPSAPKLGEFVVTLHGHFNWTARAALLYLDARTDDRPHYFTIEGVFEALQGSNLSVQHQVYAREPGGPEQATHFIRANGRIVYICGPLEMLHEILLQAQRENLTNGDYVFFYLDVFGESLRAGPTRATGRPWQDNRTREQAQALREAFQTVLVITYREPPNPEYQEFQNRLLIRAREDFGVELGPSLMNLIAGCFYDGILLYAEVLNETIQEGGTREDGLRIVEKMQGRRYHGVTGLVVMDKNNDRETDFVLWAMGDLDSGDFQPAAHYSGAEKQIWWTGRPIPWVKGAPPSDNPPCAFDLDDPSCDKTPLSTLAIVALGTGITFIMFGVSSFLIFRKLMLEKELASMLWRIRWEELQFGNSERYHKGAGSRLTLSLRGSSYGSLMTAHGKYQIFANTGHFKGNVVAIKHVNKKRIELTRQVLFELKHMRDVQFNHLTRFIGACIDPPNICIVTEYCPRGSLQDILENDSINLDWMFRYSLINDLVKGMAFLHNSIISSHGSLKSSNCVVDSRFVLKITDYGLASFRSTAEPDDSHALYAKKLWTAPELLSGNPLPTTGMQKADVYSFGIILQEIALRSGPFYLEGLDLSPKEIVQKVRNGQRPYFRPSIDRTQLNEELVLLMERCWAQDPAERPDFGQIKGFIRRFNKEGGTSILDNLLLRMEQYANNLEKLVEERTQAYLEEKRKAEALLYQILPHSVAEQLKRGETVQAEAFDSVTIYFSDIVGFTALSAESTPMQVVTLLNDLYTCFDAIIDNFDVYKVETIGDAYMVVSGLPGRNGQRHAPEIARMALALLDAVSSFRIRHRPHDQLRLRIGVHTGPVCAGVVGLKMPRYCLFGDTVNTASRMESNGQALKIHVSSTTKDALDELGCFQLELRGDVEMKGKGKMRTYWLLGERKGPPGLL

| Substance | elongation of bone (in words) (normal mice) | NPR-B agonist activity compared with hCNP-22 (in words) (NPR-B) |
| --- | --- | --- |
| CNP-22: human-derived CNP-22 consisting of 22 amino acids, GLSKGCFGLK LDRIGSMSGL GC (GLSKGCFGLKLDRIGSMSGLGC) | promoted | – |
| CNP6-22: peptide consisting of only the ring structure (amino acid Nos. 6 to 22 of SEQ ID NO: 1) (CFGLKLDRIGSMSGLGC; disulfide 1-17 (inferred)) | – | almost the same NPR-B agonist activity as that of hCNP-22 |
